Test results as given in patent US9676760B2, “Fused heterocyclic compounds as ion channel modulators” (Gilead Sciences, Inc., priority 2011, dated 2017).

Tests used:
[1] = molecular target: hNav 1.8 sodium channel isoform (Homo sapiens, UniProt Q9Y5Y9); experiment: hNav1.8 sodium channel block; format: cell-based
Source text: Compounds of this disclosure that block cardiac late INa may also mediate UDB of other Na^+ channel isoforms including the major Na^+ channel isoforms in peripheral nervous system pain fibers, NaV1.7 and 1.8. Compounds of this disclosure that block these channels may also be useful to decrease neuropathic pain.
The inhibition of either hNav 1.7 and hNav 1.8 isoforms or the inhibition of both channels when stimulated at these frequencies support the use of compounds of this disclosure to decrease neuropathic pain.

[2] = tested on: Female New Zealand rabbits; experiment: Ischemia-induced ST segment elevation in anesthetized rabbits; format: in vivo, rabbit
Description: This study was undertaken to determine the anti-ischemic effects of compounds of the present disclosure in an in vivo rabbit model.
Female New Zealand rabbits (3.0-4.0 kg) were purchased from Western Oregon Rabbitry. Animals were housed on a 12-h light and dark cycle and received standard laboratory chow and water. All experiments were performed in accordance with the Guide for the Care and Use of Laboratory Animals published by The National Research Council and with the experimental protocol approved by the Institutional Animal Care Committee of Gilead Sciences, Inc.
Rabbits were anesthetized with ketamine (35 mg/kg) and xylazine (5 mg/kg) intramuscular injection (im). A tracheotomy was performed and the trachea was intubated with an endotracheal tube. The animal was ventilated with room air supplemented with oxygen using a pressure control animal ventilator (Kent Scientific Corp., Torrington, Conn.) at a respiratory rate of 40 strokes/min and peak inspiration pressure of 10 mmH2O, which was adjusted to keep blood gases and pH within the physiological range (iSTAT clinic analyzer, Heska Corp.; Waukesha, Wis.). The left femoral artery was cannulated for the measurement of blood pressure (BP). Blood samples were also withdrawn from femoral artery. The right external jugular vein was cannulated for drug/vehicle administration. Needle electrodes were inserted subcutaneously into the limbs for recording of the surface electrocardiogram (ECG). The heart was exposed via an incision in the 4th intercostal space (4th and/or 5th ribs were cut for a clear surgical vision). The chest was opened and a pericardial cradle was formed using 4 retractors. A coronary artery occluder, comprised of a snare made of 5 cm PE-10 tubing with a 6-0 Prolene polypropylene suture in it, was placed loosely around the left anterior descending artery (LAD) at its origin. Two unipolar electrodes, made with teflon coated silver wire attached to a small patch of filter paper, were attached on the surface of the ischemic and normal regions of the left ventricle to record epicardial electrocardiogram. Reference electrodes were placed in the open incision of the neck. The body temperature of the animal was monitored via a rectal thermometer and maintained at 37-40° C. by adjusting the surface temperature of the surgical table. Regional ischemia (15 min) was induced by ligating the LAD followed by 15 min of reperfusion caused by releasing the ligation. The heart was excised at the end of the experiment and the LAD was re-ligated. The ischemic area was visualized by perfusing the heart with 1% Evans blue in saline and calculated as a percentage of total ventricular weight. Rabbits with ischemic area less than 10% or larger than 25% were excluded from the analysis. Animals were randomly assigned to vehicle and test compound groups. Test compounds was dissolved in 5% NMP, 30% PG, 45% PEG 400 and 20% de-ionized water (dH2O). Test compound was given as an iv bolus at 0.1, 0.2 and 0.4 mg/kg. After 30 min of dosing, the heart was subjected to 15 min of ischemia followed by 15 min of reperfusion.

[3] = molecular target: cardiac L-type Ca2+ channel (hCav1.2) (Homo sapiens, UniProt Q13936); experiment: L-type Ca2+ channel assay - ChanTest (PatchXpress, CHO cells); format: cell-based
Source text: Selected compounds were screened for block of the cardiac L-type Ca^2+ channel (hCav1.2, encoded by the human CACNA1C gene and coexpressed with the beta 2 subunit, encoded by the human CACNB2 gene and alpha2delta1, encoded by the CACNA2D1 gene). The Ca^2+ channel is heterologously expressed in a CHO (Chinese Hamster Ovary) cell line. Cells are maintained following standard tissue culture procedures and stable channel expression is maintained with appropriate selection antibiotics in the culture medium. Cells are harvested for testing on the PatchXpress automated patch clamp (Model 7000A, Molecular Devices, Sunnyvale, Calif.) by washing twice with Hank's Balanced Salt Solution, treating the cells with trypsin and re-suspending cells in culture medium (4-6×10^6 cells in 20 mL). Cells in suspension are allowed to recover for 10 minutes in a tissue culture incubator set at 37° C. in a humidified 95% air, 5% CO2 atmosphere.
The following solutions are used for electrophysiological recordings. The external solution contains (mM): 137 NaCl, 4 KCl, 1.8 CaCl2, 1 MgCl2, 10 Glucose, 10 HEPES (pH 7.4 with NaOH). The internal solution contains (mM): 130 Cs Aspartate, 5 MgCl2, 10 EGTA, 4 ATP, 0.5 GTP, 10 HEPES, (pH adjusted to 7.2 with N-methyl-D-glucamine).
Vehicle is applied to naive cells (n≧2, where n=the number cells), for a 5-10 minute exposure interval. Each solution exchange is performed in quadruplicate. At the end of each experiment, a saturating concentration of nifedipine (10 μM) is added to block hCav1.2 current. Leak current is digitally subtracted from the total membrane current record.
Test compound stock solutions are prepared by addition of dimethyl sulfoxide (DMSO) and stored frozen. Each test compound DMSO stock is sonicated (Model 2510/5510, Branson Ultrasonics, Danbury, Conn.), at ambient room temperature for at least 20 minutes to facilitate dissolution. Test compound concentrations are prepared fresh daily by diluting stock solutions into the standard extracellular physiological saline solution (see above). The maximum percent of DMSO added with compound is 0.1%. All test compound and control solutions are placed in a glass-lined 96-well compound plate before loading on PatchXpress.
Two concentrations (1, 10 μM) of each test compound are applied at five (5) minute intervals via disposable polyethylene micropipette tips to naïve cells (n≧2, where n=the number cells/concentration). Each test compound concentration is added to the cell in quadruplicate. […]
Onset and steady state block of hCav1.2 (α1C/β2/α2δ[…] channels is measured using a stimulus voltage pattern consisting of a depolarizing test pulse (duration, 200 ms; amplitude, 10 mV) at 10 s intervals from a −80 mV holding potential. Peak current is measured during a step to 10 mV.

cardiac L-type Ca2+ channel (hCav1.2), sequence (Q13936 whole entry): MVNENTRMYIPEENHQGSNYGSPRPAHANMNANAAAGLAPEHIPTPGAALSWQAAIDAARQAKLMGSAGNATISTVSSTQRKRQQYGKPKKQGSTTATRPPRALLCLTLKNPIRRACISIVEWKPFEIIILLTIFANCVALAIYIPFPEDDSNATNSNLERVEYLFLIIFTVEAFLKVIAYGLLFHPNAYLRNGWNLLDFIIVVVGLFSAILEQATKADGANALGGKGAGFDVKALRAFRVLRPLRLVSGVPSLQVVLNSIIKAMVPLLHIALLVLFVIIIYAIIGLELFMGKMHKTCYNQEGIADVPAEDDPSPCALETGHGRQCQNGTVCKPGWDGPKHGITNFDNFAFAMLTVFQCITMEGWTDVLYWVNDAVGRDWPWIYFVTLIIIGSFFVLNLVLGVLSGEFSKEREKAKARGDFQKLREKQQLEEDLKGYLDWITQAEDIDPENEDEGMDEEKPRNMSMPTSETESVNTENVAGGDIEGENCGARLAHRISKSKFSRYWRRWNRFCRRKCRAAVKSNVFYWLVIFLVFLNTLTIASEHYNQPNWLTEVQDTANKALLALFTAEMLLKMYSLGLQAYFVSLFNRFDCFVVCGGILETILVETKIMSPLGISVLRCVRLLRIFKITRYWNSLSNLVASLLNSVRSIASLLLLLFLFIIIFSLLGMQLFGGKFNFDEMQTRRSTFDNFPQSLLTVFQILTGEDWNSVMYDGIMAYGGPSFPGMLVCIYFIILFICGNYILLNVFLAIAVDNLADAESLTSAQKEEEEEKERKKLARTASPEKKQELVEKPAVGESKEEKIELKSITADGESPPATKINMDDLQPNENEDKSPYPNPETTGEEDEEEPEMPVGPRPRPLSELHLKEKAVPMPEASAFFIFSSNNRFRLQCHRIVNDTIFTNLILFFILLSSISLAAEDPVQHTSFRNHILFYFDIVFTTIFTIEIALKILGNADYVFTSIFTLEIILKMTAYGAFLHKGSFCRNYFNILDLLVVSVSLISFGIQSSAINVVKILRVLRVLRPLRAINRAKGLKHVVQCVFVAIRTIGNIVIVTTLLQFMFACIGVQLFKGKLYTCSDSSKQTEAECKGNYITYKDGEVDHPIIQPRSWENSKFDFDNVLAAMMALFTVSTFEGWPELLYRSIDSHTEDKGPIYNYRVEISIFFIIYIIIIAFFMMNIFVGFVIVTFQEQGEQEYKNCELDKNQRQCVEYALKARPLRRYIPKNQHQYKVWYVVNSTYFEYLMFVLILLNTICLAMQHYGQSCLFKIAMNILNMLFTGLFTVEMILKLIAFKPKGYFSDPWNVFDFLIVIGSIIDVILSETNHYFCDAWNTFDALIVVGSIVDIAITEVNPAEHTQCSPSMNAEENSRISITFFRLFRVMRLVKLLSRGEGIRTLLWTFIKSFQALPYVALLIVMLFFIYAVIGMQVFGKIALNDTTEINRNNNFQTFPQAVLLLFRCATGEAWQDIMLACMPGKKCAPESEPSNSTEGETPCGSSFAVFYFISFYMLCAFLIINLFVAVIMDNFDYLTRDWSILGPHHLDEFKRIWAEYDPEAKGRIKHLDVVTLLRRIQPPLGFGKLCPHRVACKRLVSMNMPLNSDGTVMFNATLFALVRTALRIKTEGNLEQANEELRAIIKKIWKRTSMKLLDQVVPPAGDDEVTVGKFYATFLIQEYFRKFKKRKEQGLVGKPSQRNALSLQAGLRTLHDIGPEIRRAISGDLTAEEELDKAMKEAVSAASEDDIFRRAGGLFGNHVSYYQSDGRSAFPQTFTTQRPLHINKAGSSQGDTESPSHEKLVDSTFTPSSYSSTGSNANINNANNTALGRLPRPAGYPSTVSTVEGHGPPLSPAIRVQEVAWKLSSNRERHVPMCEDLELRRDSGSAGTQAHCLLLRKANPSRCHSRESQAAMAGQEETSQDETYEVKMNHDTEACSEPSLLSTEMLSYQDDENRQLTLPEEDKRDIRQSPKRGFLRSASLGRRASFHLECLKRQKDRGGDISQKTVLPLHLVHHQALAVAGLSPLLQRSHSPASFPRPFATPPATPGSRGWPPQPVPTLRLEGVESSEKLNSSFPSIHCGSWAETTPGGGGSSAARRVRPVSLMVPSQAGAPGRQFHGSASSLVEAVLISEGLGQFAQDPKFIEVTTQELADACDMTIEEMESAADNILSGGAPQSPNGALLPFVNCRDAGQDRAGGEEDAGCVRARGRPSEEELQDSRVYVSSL
cardiac L-type Ca2+ channel (hCav1.2), sequence (Q08289 whole entry partner): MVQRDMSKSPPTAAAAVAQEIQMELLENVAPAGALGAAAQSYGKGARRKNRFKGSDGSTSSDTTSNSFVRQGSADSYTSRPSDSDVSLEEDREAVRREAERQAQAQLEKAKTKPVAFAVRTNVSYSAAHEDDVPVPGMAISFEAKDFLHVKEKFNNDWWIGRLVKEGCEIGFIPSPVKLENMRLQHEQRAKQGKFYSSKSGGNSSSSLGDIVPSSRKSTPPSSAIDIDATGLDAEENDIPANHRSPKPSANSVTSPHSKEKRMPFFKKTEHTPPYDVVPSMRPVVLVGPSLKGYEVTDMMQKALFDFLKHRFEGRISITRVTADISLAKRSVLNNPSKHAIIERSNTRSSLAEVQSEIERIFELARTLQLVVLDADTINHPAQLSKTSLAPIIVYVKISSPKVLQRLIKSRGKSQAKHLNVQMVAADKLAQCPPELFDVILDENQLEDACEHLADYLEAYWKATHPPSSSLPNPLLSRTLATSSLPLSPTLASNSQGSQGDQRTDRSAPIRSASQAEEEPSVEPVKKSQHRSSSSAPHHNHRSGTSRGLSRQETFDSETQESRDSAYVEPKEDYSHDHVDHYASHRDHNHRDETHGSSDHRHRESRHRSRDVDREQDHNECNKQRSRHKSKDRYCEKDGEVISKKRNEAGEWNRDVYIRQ
cardiac L-type Ca2+ channel (hCav1.2), sequence (P54289 25-956 partner limits assumed): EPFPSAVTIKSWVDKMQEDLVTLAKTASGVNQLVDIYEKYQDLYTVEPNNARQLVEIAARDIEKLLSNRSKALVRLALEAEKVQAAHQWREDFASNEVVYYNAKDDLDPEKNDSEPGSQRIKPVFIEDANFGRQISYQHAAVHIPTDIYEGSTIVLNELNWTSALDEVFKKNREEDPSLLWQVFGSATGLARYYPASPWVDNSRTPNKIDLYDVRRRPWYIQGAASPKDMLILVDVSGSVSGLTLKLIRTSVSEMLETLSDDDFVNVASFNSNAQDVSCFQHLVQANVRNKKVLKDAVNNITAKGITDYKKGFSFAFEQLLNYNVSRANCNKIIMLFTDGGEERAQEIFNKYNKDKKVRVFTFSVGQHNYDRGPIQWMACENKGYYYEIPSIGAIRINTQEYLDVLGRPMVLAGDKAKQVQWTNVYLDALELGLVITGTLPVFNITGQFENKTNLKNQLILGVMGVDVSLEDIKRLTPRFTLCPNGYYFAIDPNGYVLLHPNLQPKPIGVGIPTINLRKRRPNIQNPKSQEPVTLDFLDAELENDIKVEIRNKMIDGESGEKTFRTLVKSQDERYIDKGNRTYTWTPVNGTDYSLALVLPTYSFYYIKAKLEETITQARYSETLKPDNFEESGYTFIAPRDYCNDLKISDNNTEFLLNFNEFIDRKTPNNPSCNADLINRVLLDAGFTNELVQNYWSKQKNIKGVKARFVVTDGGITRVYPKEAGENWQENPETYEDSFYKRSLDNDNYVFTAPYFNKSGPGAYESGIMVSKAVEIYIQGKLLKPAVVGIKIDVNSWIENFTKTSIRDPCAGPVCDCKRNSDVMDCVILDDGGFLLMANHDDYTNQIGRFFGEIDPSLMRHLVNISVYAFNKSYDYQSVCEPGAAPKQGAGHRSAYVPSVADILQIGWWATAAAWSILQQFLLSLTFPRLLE
cardiac L-type Ca2+ channel (hCav1.2), sequence (P54289 957-1103 partner limits assumed): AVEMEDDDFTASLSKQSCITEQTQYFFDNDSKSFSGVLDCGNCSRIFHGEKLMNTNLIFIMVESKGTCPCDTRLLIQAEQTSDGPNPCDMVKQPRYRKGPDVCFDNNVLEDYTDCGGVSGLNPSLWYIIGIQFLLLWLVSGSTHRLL

Structure (SMILES): O=C1c2cc(-c3ccc(OC(F)(F)F)cc3)ccc2OCCN1Cc1ncccn1 [II-73, 4-(pyrimidin-2-ylmethyl)-7-(4-(trifluoromethoxy)phenyl)-3,4-dihydrobenzo[f][1,4]oxazepin-5(2H)-one]
- IC50 ([1]; 10 Hz frequency): > 10000 nM
- IC50 ([1]; frequency of 25 Hz): 1500 nM
- area under curve (AUC) for the ST segment height reduced (vs. control) ([2]; 0.5 μM plasma concentration, iv bolus, 15 min ischemia): 93%
- effect on blood pressure (BP), heart rate (HR) and ECG intervals prior to the ischemia ([2]; at the plasma concentration levels studied): no significant effect
- ischemia-induced ST elevation ([2]; iv bolus 30 min before 15 min ischemia): dose-dependently prevented
- blocked the hCav1.2 late current ([3]; 1 μM concentration): 14%
- blocked the hCav1.2 peak current ([3]; 1 μM concentration): 32%
- blocked the hCav1.2 late current ([3]; 10 μM concentration): 47%
- blocked the hCav1.2 peak current ([3]; 10 μM concentration): 79%
